Activity calls are given as the source filed them. The rule behind the calls is not given here.
tested on: HIV Env-mediated cell-cell fusion, luminescence reporter; assay: HIV Env-driven cell-cell fusion inhibition, SAR follow-up, luminescence reporter (AID 435029)

Compound	IC50
Cc1c2c(=O)n(-c3nc4ccccc4s3)nc-2cc(O)n1Cc1ccccc1	6.58 µM
O=C(O)c1ccccc1N=Nc1c(O)[nH]c2ccc([N+](=O)[O-])cc12	> 100 µM (inactive)
O=C(N/N=C/c1c(O)n(C2CCCCC2)c(=S)[nH]c1=O)c1ccccc1O	11.5 µM
O=C(O)c1cc(NN=Cc2ccc(-c3ccccc3)cc2)ccc1Cl	10 µM
COc1cc(C=NNc2ccc(Cl)c(C(=O)O)c2)ccc1OC(=O)c1ccccc1F	68 µM
COc1ccc(C(=O)Oc2ccc(C=NNc3ccc(Cl)c(C(=O)O)c3)cc2OC)cc1	13 µM
COc1cc(C=NNc2ccc(Cl)c(C(=O)O)c2)ccc1OC(=O)c1ccc(F)cc1	30 µM
CC(C)(C)c1cc(-c2csc(Nc3ccccc3)[n+]2Cc2ccc(C(=O)O)cc2)cc(C(C)(C)C)c1O	3.5 µM
CCOC(=O)c1sc(N2C(=O)C(O)=C(C(=O)c3ccc(C)o3)C2c2cccc([N+](=O)[O-])c2)nc1C (stereo not given)	5.1 µM
N#C/C(=C\c1ccc(O)c([N+](=O)[O-])c1)c1nc2ccccc2s1	4.65 µM
